The results in this text go back to patent US9499550B2 (BRISTOL-MYERS SQUIBB COMPANY, priority 2012, dated 2016).

In assay [1] the test system is HCV genotype 1a (H77 strain) replicon in HUH-7 cells. Put plainly: HCV replicon luciferase reporter assay, genotype 1a. To be noted: Hepatitis C virus, Huh-7, 72 h, HCV genotype 1a replicon luciferase, 3 days incubation, read-out: LE_1a (EC50, range). The format is cell-based. An outline of the steps:
(§1)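 Replicon inhibition for both genotypes was measured as Renilla luciferase signal (EnduRen, 7.5 μM final, 2 h) after 3-day, 37° C exposure of replicon-bearing HUH-7 cells in 4% FCS DMEM, 0.5% DMSO. The 1b construct carries S1179I; the 1a H77 construct carries P1496L and S2204I. Twenty-point, 3-fold dilutions were fitted four-parametrically for EC50, and CC50 was taken from multiplexed Cell Titer-Blue.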
On the technique in general: A replicon is a self-replicating genome or part of one, used to study replication in cells.

The test system of assay [2] is HCV genotype 1b (Con1) replicon in HUH-7 cells. Put plainly: HCV replicon luciferase reporter assay, genotype 1b. The assay is classed as cell-based. To be noted: Hepatitis C virus, Huh-7, 72 h, HCV genotype 1b replicon luciferase, 3 days incubation, read-out: LE_1b (EC50, range). An outline of the steps:
as §1

For orientation: EC50 means the concentration giving half of the maximal effect.

For the compound `COc1ccc2c(O[C@@H]3C[C@H]4C(=O)N[C@]5(C(=O)NS(=O)(=O)C6(C)CC6)C[C@H]5/C=C\CC[C@H](C)C[C@@H](C)[C@H](NC(=O)OC(C)(C)C)C(=O)N4C3)nc(-c3ccc(OC(C)C)nc3)cc2c1` [Compound 5222, tert-butyl ((2R,6S,7R,9S,13aS,14aR,16aS,Z)-2-((3-(6-isopropoxypyridin-3-yl)-6-methoxyisoquinolin-1-yl)oxy)-7,9-dimethyl-14a-(((1-methylcyclopropyl)sulfonyl)carbamoyl)-5,16-dioxo-1,2,3,5,6,7,8,9,10,11,13a,14,14a,15,16,16a-hexadecahydrocyclopropa[e]pyrrolo[1,2-a][1,4]diazacyclopentadecin-6-yl)carbamate], the EC50 in assay [1] is 4.82 to 103 nM; in assay [2], under 5.46 nM.

Regarding `COc1ccc2c(O[C@@H]3C[C@H]4C(=O)N[C@]5(C(=O)NS(=O)(=O)C6(C)CC6)C[C@H]5/C=C\CC[C@@H](C)C[C@@H](C)[C@H](NC(=O)OC(C)(C)C)C(=O)N4C3)nc(-c3ccc(OC(C)C)nc3)cc2c1` [Compound 5223, tert-butyl ((2R,6S,7R,9R,13aS,14aR,16aS,Z)-2-((3-(6-isopropoxypyridin-3-yl)-6-methoxyisoquinolin-1-yl)oxy)-7,9-dimethyl-14a-(((1-methylcyclopropyl)sulfonyl)carbamoyl)-5,16-dioxo-1,2,3,5,6,7,8,9,10,11,13a,14,14a,15,16,16a-hexadecahydrocyclopropa[e]pyrrolo[1,2-a][1,4]diazacyclopentadecin-6-yl)carbamate], the EC50 in assay [1] and in assay [2] was under 5.46 nM throughout.

Regarding `COc1ccc2c(O[C@@H]3C[C@H]4C(=O)N[C@]5(C(=O)NS(=O)(=O)C6(C)CC6)C[C@H]5/C=C\CC[C@H](C)C[C@@H](C)[C@H](NC(=O)OC(C)(C)C(F)(F)F)C(=O)N4C3)nc(-c3ccc(OC(C)C)nc3)cc2c1` [Compound 5224, 1,1,1-trifluoro-2-methylpropan-2-yl((2R,6S,7R,9S,13aS,14aR,16aS,Z)-2-((3-(6-isopropoxypyridin-3-yl)-6-methoxyisoquinolin-1-yl)oxy)-7,9-dimethyl-14a-(((1-methylcyclopropyl)sulfonyl)carbamoyl)-5,16-dioxo-1,2,3,5,6,7,8,9,10,11,13a,14,14a,15,16,16a-hexadecahydrocyclopropa[e]pyrrolo[1,2-a][1,4]diazacyclopentadecin-6-yl)carbamate], the concentration giving a half-maximal response (EC50) in assay [1] and in assay [2] was 4.82 to 103 nM throughout.

With `COc1ccc2c(O[C@@H]3C[C@H]4C(=O)N[C@]5(C(=O)NS(=O)(=O)C6(C)CC6)C[C@H]5/C=C\CC[C@@H](C)C[C@@H](C)[C@H](NC(=O)OC(C)(C)C(F)(F)F)C(=O)N4C3)nc(-c3ccc(OC(C)C)nc3)cc2c1` [Compound 5225, 1,1,1-trifluoro-2-methylpropan-2-yl((2R,6S,7R,9R,13aS,14aR,16aS,Z)-2-((3-(6-isopropoxypyridin-3-yl)-6-methoxyisoquinolin-1-yl)oxy)-7,9-dimethyl-14a-(((1-methylcyclopropyl)sulfonyl)carbamoyl)-5,16-dioxo-1,2,3,5,6,7,8,9,10,11,13a,14,14a,15,16,16a-hexadecahydrocyclopropa[e]pyrrolo[1,2-a][1,4]diazacyclopentadecin-6-yl)carbamate], the EC50 in assay [1] and in assay [2] was under 5.46 nM in each case.

Take `[2H]C([2H])([2H])C(OC(=O)N[C@@H]1C(=O)N2C[C@H](Oc3nc(-c4ccc(OC(C)C)nc4)cc4cc(OC)ccc34)C[C@H]2C(=O)N[C@]2(C(=O)NS(=O)(=O)C3(C)CC3)C[C@H]2/C=C\CC[C@H](C)C[C@H]1C)(C([2H])([2H])[2H])C(F)(F)F` [Compound 5226, 1,1,1,3,3,3-hexadeutero-2-(trifluoromethyl)propan-2-yl((2R,6S,7R,9S,13aS,14aR,16aS,Z)-2-((3-(6-isopropoxypyridin-3-yl)-6-methoxyisoquinolin-1-yl)oxy)-7,9-dimethyl-14a-(((1-methylcyclopropyl)sulfonyl)carbamoyl)-5,16-dioxo-1,2,3,5,6,7,8,9,10,11,13a,14,14a,15,16,16a-hexadecahydrocyclopropa[e]pyrrolo[1,2-a][1,4]diazacyclopentadecin-6-yl)carbamate]: the EC50 in assay [1] and in assay [2] was 4.82 to 103 nM each time.

`[2H]C([2H])([2H])C(OC(=O)N[C@@H]1C(=O)N2C[C@H](Oc3nc(-c4ccc(OC(C)C)nc4)cc4cc(OC)ccc34)C[C@H]2C(=O)N[C@]2(C(=O)NS(=O)(=O)C3(C)CC3)C[C@H]2/C=C\CC[C@@H](C)C[C@H]1C)(C([2H])([2H])[2H])C(F)(F)F` [Compound 5227, 1,1,1,3,3,3-hexadeutero-2-(trifluoromethyl)propan-2-yl((2R,6S,7R,9R,13aS,14aR,16aS,Z)-2-((3-(6-isopropoxypyridin-3-yl)-6-methoxyisoquinolin-1-yl)oxy)-7,9-dimethyl-14a-(((1-methylcyclopropyl)sulfonyl)carbamoyl)-5,16-dioxo-1,2,3,5,6,7,8,9,10,11,13a,14,14a,15,16,16a-hexadecahydrocyclopropa[e]pyrrolo[1,2-a][1,4]diazacyclopentadecin-6-yl)carbamate]: the EC50 in assay [1] and in assay [2] was under 5.46 nM in each case.

Take `COc1ccc2c(O[C@@H]3C[C@H]4C(=O)N[C@]5(C(=O)NS(=O)(=O)C6(C)CC6)C[C@H]5/C=C\CC[C@H](C)C[C@@H](C)[C@H](NC(=O)OC5C[C@@H]6C[C@@H]6C5)C(=O)N4C3)nc(-c3ccc(OC(C)C)nc3)cc2c1` (stereo partly drawn) [Compound 5228, (1R,3r,5S)-bicyclo[3.1.0]hexan-3-yl((2R,6S,7R,9S,13aS,14aR,16aS,Z)-2-((3-(6-isopropoxypyridin-3-yl)-6-methoxyisoquinolin-1-yl)oxy)-7,9-dimethyl-14a-(((1-methylcyclopropyl)sulfonyl)carbamoyl)-5,16-dioxo-1,2,3,5,6,7,8,9,10,11,13a,14,14a,15,16,16a-hexadecahydrocyclopropa[e]pyrrolo[1,2-a][1,4]diazacyclopentadecin-6-yl)carbamate]: the half-maximal effective concentration (EC50) was 4.82 to 103 nM in assay [1] and under 5.46 nM in assay [2].

With `COc1ccc2c(O[C@@H]3C[C@H]4C(=O)N[C@]5(C(=O)NS(=O)(=O)C6(C)CC6)C[C@H]5/C=C\CC[C@@H](C)C[C@@H](C)[C@H](NC(=O)OC5C[C@@H]6C[C@@H]6C5)C(=O)N4C3)nc(-c3ccc(OC(C)C)nc3)cc2c1` (stereo partly drawn) [Compound 5229, (1R,3r,5S)-bicyclo[3.1.0]hexan-3-yl((2R,6S,7R,9R,13aS,14aR,16aS,Z)-2-((3-(6-isopropoxypyridin-3-yl)-6-methoxyisoquinolin-1-yl)oxy)-7,9-dimethyl-14a-(((1-methylcyclopropyl)sulfonyl)carbamoyl)-5,16-dioxo-1,2,3,5,6,7,8,9,10,11,13a,14,14a,15,16,16a-hexadecahydrocyclopropa[e]pyrrolo[1,2-a][1,4]diazacyclopentadecin-6-yl)carbamate], the concentration for a half-maximal effect (EC50) in assay [1] and in assay [2] was under 5.46 nM throughout.

On to `COc1ccc2c(O[C@@H]3C[C@H]4C(=O)N[C@]5(C(=O)NS(=O)(=O)C6(C)CC6)C[C@H]5/C=C\CC[C@H](C)C[C@@H](C)[C@H](NC(=O)NC(C)(C)C)C(=O)N4C3)nc(-c3ccc(OC(C)C)nc3)cc2c1` [Compound 5230, (2R,6S,7R,9S,13aS,14aR,16aS,Z)-6-(3-(tert-butyl)ureido)-2-((3-(6-isopropoxypyridin-3-yl)-6-methoxyisoquinolin-1-yl)oxy)-7,9-dimethyl-N-((1-methylcyclopropyl)sulfonyl)-5,16-dioxo-1,2,3,5,6,7,8,9,10,11,13a,14,14a,15,16,16a-hexadecahydrocyclopropa[e]pyrrolo[1,2-a][1,4]diazacyclopentadecine-14a-carboxamide], for which the EC50 in assay [1] is 4.82 to 103 nM; in assay [2], under 5.46 nM.

On to `COc1ccc2c(O[C@@H]3C[C@H]4C(=O)N[C@]5(C(=O)NS(=O)(=O)C6(C)CC6)C[C@H]5/C=C\CC[C@@H](C)C[C@@H](C)[C@H](NC(=O)NC(C)(C)C)C(=O)N4C3)nc(-c3ccc(OC(C)C)nc3)cc2c1` [Compound 5231, (2R,6S,7R,9R,13aS,14aR,16aS,Z)-6-(3-(tert-butyl)ureido)-2-((3-(6-isopropoxypyridin-3-yl)-6-methoxyisoquinolin-1-yl)oxy)-7,9-dimethyl-N-((1-methylcyclopropyl)sulfonyl)-5,16-dioxo-1,2,3,5,6,7,8,9,10,11,13a,14,14a,15,16,16a-hexadecahydrocyclopropa[e]pyrrolo[1,2-a][1,4]diazacyclopentadecine-14a-carboxamide], for which the EC50 in assay [1] and in assay [2] was under 5.46 nM in each case.

Take `COc1ccc2c(O[C@@H]3C[C@H]4C(=O)N[C@]5(C(=O)NS(=O)(=O)C6(C)CC6)C[C@H]5/C=C\CC[C@@H](C)C[C@@H](C)[C@H](NC(=O)OC(C)(C)C)C(=O)N4C3)nc(-c3ccc4c(c3)OCCO4)cc2c1` [Compound 5233, tert-butyl ((2R,6S,7R,9R,13aS,14aR,16aS,Z)-2-((3-(2,3-dihydrobenzo[b][1,4]dioxin-6-yl)-6-methoxyisoquinolin-1-yl)oxy)-7,9-dimethyl-14a-(((1-methylcyclopropyl)sulfonyl)carbamoyl)-5,16-dioxo-1,2,3,5,6,7,8,9,10,11,13a,14,14a,15,16,16a-hexadecahydrocyclopropa[e]pyrrolo[1,2-a][1,4]diazacyclopentadecin-6-yl)carbamate]: the concentration giving a half-maximal response (EC50) in assay [1] and in assay [2] was under 5.46 nM each time.
